Experimental data from ChEMBL document CHEMBL4257454, “Study on the interaction between the 1,4,5,8-naphthalene diimide-spermine conjugate (NDIS) and DNA using a spectroscopic approach and molecular docking” (Medchemcomm, 2017).
Activity calls are given as the source filed them. The calls are words filed in the database; no cut-off is given here.

Experiments:
Clupeidae [1] = experiment: Binding affinity to herring sperm DNA assessed as hypochromism at 80 uM after 30 mins by UV-visible spectrophotometric method
Clupeidae [2] = experiment: Binding affinity to herring sperm DNA assessed as red shift at 80 uM after 30 mins by UV-visible spectrophotometric method
Clupeidae [3] = experiment: Binding affinity to herring sperm DNA groove assessed as hyperchromic effect at DNA to compound molar ratio of >5.5 after 30 mins by UV-visible spectrophotometric method
Clupeidae [4] = experiment: Binding affinity to herring sperm DNA after 30 mins by UV-visible spectrophotometric method
Clupeidae [5] = experiment: Binding affinity to herring sperm DNA assessed as test compound fluorescence quenching by fluorescence spectroscopic method relative to control
Clupeidae [6] = experiment: Inhibition of ethidium bromide binding to herring sperm DNA assessed as fluorescence quenching of DNA-ethidium bromide complex up to 120 uM after 30 mins by fluorescence spectroscopic assay relative to control; design: scale not given: the % may be the effect or the level left
Clupeidae [7] = experiment: Binding affinity to herring sperm DNA groove assessed as fluorescence quenching at DNA to compound molar ratio of >5.5 by fluorescence spectroscopic method
Clupeidae [8] = experiment: Binding affinity to herring sperm DNA assessed as Stern-Volmer quenching constant at 298 K by fluorescence spectroscopic method
Clupeidae [9] = experiment: Binding affinity to herring sperm DNA assessed as Stern-Volmer quenching constant at 303 K by fluorescence spectroscopic method
Clupeidae [10] = experiment: Binding affinity to herring sperm DNA assessed as Stern-Volmer quenching constant at 310 K by fluorescence spectroscopic method
Clupeidae [11] = experiment: Binding affinity to herring sperm DNA assessed as quenching constant at 298 K by fluorescence spectroscopic method
Clupeidae [12] = experiment: Binding affinity to herring sperm DNA assessed as quenching constant at 303 K by fluorescence spectroscopic method
Clupeidae [13] = experiment: Binding affinity to herring sperm DNA assessed as quenching constant at 310 K by fluorescence spectroscopic method
Clupeidae [14] = experiment: Inhibition of ethidium bromide binding to herring sperm DNA assessed as Stern-Volmer quenching constant at 298 K after 30 mins by fluorescence spectroscopic assay
Clupeidae [15] = experiment: Inhibition of ethidium bromide binding to herring sperm DNA assessed as Stern-Volmer quenching constant at 303 K after 30 mins by fluorescence spectroscopic assay
Clupeidae [16] = experiment: Inhibition of ethidium bromide binding to herring sperm DNA assessed as Stern-Volmer quenching constant at 310 K after 30 mins by fluorescence spectroscopic assay
Clupeidae [17] = experiment: Binding affinity to herring sperm DNA at 298 K by fluorescence spectroscopic method
Clupeidae [18] = experiment: Binding affinity to herring sperm DNA at 303 K by fluorescence spectroscopic method
Clupeidae [19] = experiment: Binding affinity to herring sperm DNA at 310 K by fluorescence spectroscopic method
Clupeidae [20] = experiment: Inhibition of ethidium bromide binding to herring sperm DNA at 298 K after 30 mins by fluorescence spectroscopic assay
Clupeidae [21] = experiment: Inhibition of ethidium bromide binding to herring sperm DNA at 303 K after 30 mins by fluorescence spectroscopic assay
Clupeidae [22] = experiment: Inhibition of ethidium bromide binding to herring sperm DNA at 310 K after 30 mins by fluorescence spectroscopic assay
Clupeidae [23] = experiment: Binding affinity to herring sperm DNA assessed as iodide quenching at 20 uM after 30 mins by fluorescence method (reference value: 27 L/mol)
Clupeidae [24] = experiment: Binding affinity to herring sperm DNA at 40 uM after 30 mins in presence of Na+ by fluorescence quenching method
Clupeidae [25] = experiment: Binding affinity to herring sperm DNA assessed as negative peak at 16 to 48 uM up to 30 mins by circular dichroism method (reference value: 210 nanometer)
Clupeidae [26] = experiment: Binding affinity to herring sperm DNA assessed as positive peak at 16 to 48 uM up to 30 mins by circular dichroism method (reference value: 280 nanometer)
Clupeidae [27] = experiment: Binding affinity to herring sperm DNA assessed as blue shift at 16 to 48 uM up to 30 mins by circular dichroism method
Clupeidae [28] = experiment: Binding affinity to herring sperm DNA groove assessed as up-field shift at 3 mg by 1H NMR method
Clupeidae [29] = experiment: Inhibition of ethidium bromide binding to herring sperm DNA assessed as DNA insertion at 3 mg by 1H NMR method
Clupeidae [30] = experiment: Inhibition of ethidium bromide binding to herring sperm DNA assessed as quenching constant at 298 K after 30 mins by fluorescence spectroscopic assay
Clupeidae [31] = experiment: Inhibition of ethidium bromide binding to herring sperm DNA assessed as quenching constant at 303 K after 30 mins by fluorescence spectroscopic assay
Clupeidae [32] = experiment: Inhibition of ethidium bromide binding to herring sperm DNA assessed as quenching constant at 310 K after 30 mins by fluorescence spectroscopic assay

SMILES: NCCCNCCCCNCCCN1C(=O)c2ccc3c4c(ccc(c24)C1=O)C(=O)N(CCCNCCCCNCCCN)C3=O
- Activity (Clupeidae [1]): 60.7%
- Activity (Clupeidae [2]): Active
- Activity (Clupeidae [3]): Active
- Kapp (Clupeidae [4]): 1.55 ×10³ L/mol
- Activity (Clupeidae [5]): 91%
- Activity (Clupeidae [6]): 87.8%
- Activity (Clupeidae [7]): Active
- KSV (Clupeidae [8]): 5.32 ×10³ L/mol
- KSV (Clupeidae [9]): 5.63 ×10³ L/mol
- KSV (Clupeidae [10]): 4.63 ×10³ L/mol
- Kq (Clupeidae [11]): 5.32 ×10¹¹ L/mol
- Kq (Clupeidae [12]): 5.63 ×10¹¹ L/mol
- Kq (Clupeidae [13]): 4.63 ×10¹¹ L/mol
- KSV (Clupeidae [14]): 1.18 ×10⁵ L/mol
- KSV (Clupeidae [15]): 1.28 ×10⁵ L/mol
- KSV (Clupeidae [16]): 1.45 ×10⁵ L/mol
- Kb (Clupeidae [17]): 1.38 ×10⁴ L/mol
- Kb (Clupeidae [18]): 1.25 ×10⁴ L/mol
- Kb (Clupeidae [19]): 1.7 ×10⁴ L/mol
- Kb (Clupeidae [20]): 1.23 ×10⁵ L/mol
- Kb (Clupeidae [21]): 1.25 ×10⁵ L/mol
- Kb (Clupeidae [22]): 1.21 ×10⁵ L/mol
- KSV (Clupeidae [23]): 18.1 L/mol
- Activity (Clupeidae [24]): Active
- Activity (Clupeidae [25]): 245 nm
- Activity (Clupeidae [26]): 280 nm
- Activity (Clupeidae [27]): Active
- Activity (Clupeidae [28]): Active
- Activity (Clupeidae [29]): Active
- Kq (Clupeidae [30]): 1.18 ×10¹³ L/mol
- Kq (Clupeidae [31]): 1.28 ×10¹³ L/mol
- Kq (Clupeidae [32]): 1.45 ×10¹³ L/mol

SMILES: NCCCNCCCCNCCCN1C(=O)c2cccc3cccc(c23)C1=O
- Activity (Clupeidae [1]): 40%
- Activity (Clupeidae [5]): 68.5%
- Activity (Clupeidae [6]): 77.2%

SMILES: NCCCCNCCCN
- Kapp (Clupeidae [4]): 1.47 ×10⁵ L/mol
